# Values of other authors, collected in US10610707B2, “Oral care product for sensitive enamel care” (Colgate-Palmolive Company, priority 2010, dated 2020).
# Conditions: pH below which the compound dissolves, consuming acid
row,Structure (SMILES),pH
1,"[O]=[Zn] [ZnO, Zinc oxide]",approximately 6.95
2,O=C([O-])[O-].[Ca+2] [calcium carbonate],approximately 8.75
